Data as given in PubChem BioAssay AID248 (DTP/NCI, 2004).
“And” between values parts separate entries of the source, which are not always exact repeats. Equal entries are not always repeated. Inconclusive results and toxic doses are left out. No stated cut-off is given here; in the data, active means T/C of 150% or more; inactive means T/C below 125%.

System: L1210 leukemia ip in BDF1 mice, survival T/C
Assay: NCI In Vivo Anticancer Drug Screen. Data for tumor model L1210 Leukemia (intraperitoneal) in B6D2F1 (BDF1) mice
Conditions: higher = longer survival
How it was run: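 Tumor cells were implanted, animals were treated, and survival was followed. The result divides the treated measurement by the vehicle-control measurement.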

[1] = endpoint: mean survival time, dose: 100.0 mg/kg/injection, schedule: Q01DX001 (ip), vehicle: saline
[2] = endpoint: mean survival time, dose: 200.0 mg/kg/injection, schedule: Q01DX001 (ip), vehicle: saline
[3] = endpoint: mean survival time, dose: 400.0 mg/kg/injection, schedule: Q01DX001 (ip), vehicle: saline
[4] = endpoint: mean survival time, dose: 100.0 mg/kg/injection, schedule: Q04DX003 (ip), vehicle: Klucel (hydroxypropylcellulose) (HPC)
[5] = endpoint: mean survival time, dose: 200.0 mg/kg/injection, schedule: Q04DX003 (ip), vehicle: Klucel (hydroxypropylcellulose) (HPC)
[6] = endpoint: mean survival time, dose: 400.0 mg/kg/injection, schedule: Q04DX003 (ip), vehicle: Klucel (hydroxypropylcellulose) (HPC)
[7] = endpoint: mean survival time, dose: 100.0 mg/kg/injection, schedule: Q04DX003 (ip), vehicle: saline with Tween-80
[8] = endpoint: mean survival time, dose: 200.0 mg/kg/injection, schedule: Q04DX003 (ip), vehicle: saline with Tween-80
[9] = endpoint: mean survival time, dose: 400.0 mg/kg/injection, schedule: Q04DX003 (ip), vehicle: saline with Tween-80

Measured: T/C

CC(=O)NC(CS)C(=O)O (stereo unspecified)
inactive: [1] 96 % of control | [2] 95 % of control | [3] 98 % of control | endpoint: median survival time, dose: 250.0 mg/kg/injection, schedule: Q01DX001 (ip), vehicle: saline 100 % of control | endpoint: median survival time, dose: 500.0 mg/kg/injection, schedule: Q01DX001 (ip), vehicle: none 101 % of control | endpoint: median survival time, dose: 750.0 mg/kg/injection, schedule: Q01DX001 (ip), vehicle: none 99 % of control | endpoint: median survival time, dose: 750.0 mg/kg/injection, schedule: Q01DX001 (ip), vehicle: saline 100 % of control | endpoint: median survival time, dose: 1000.0 mg/kg/injection, schedule: Q01DX001 (ip), vehicle: none 97 % of control and 106 % of control | endpoint: median survival time, dose: 1000.0 mg/kg/injection, schedule: Q01DX009 (ip), vehicle: saline 93 % of control | endpoint: median survival time, dose: 1000.0 mg/kg/injection, schedule: Q01DX014 (ip), vehicle: saline 100 % of control and 102 % of control | endpoint: median survival time, dose: 1000.0 mg/kg/injection, schedule: Q07DX003 (ip), vehicle: saline 94 % of control | endpoint: median survival time, dose: 1500.0 mg/kg/injection, schedule: Q01DX001 (ip), vehicle: none 113 % of control | endpoint: median survival time, dose: 1500.0 mg/kg/injection, schedule: Q01DX009 (ip), vehicle: saline 96 % of control | endpoint: median survival time, dose: 1500.0 mg/kg/injection, schedule: Q01DX014 (ip), vehicle: saline 102 % of control and 105 % of control | endpoint: median survival time, dose: 1500.0 mg/kg/injection, schedule: Q07DX003 (ip), vehicle: saline 94 % of control | endpoint: median survival time, dose: 2000.0 mg/kg/injection, schedule: Q01DX001 (ip), vehicle: saline 100 % of control

Cc1ccc(/C(O)=C\C(=S)SS)cc1
inactive: endpoint: mean survival time, dose: 100.0 mg/kg/injection, schedule: Q01DX001 (ip), vehicle: Klucel (hydroxypropylcellulose) (HPC) 108 % of control | endpoint: mean survival time, dose: 100.0 mg/kg/injection, schedule: Q01DX009 (ip), vehicle: saline 100 % of control | [4] 97 % of control | endpoint: mean survival time, dose: 200.0 mg/kg/injection, schedule: Q01DX001 (ip), vehicle: Klucel (hydroxypropylcellulose) (HPC) 100 % of control | endpoint: mean survival time, dose: 200.0 mg/kg/injection, schedule: Q01DX009 (ip), vehicle: saline 102 % of control | [5] 90 % of control | endpoint: mean survival time, dose: 400.0 mg/kg/injection, schedule: Q01DX001 (ip), vehicle: Klucel (hydroxypropylcellulose) (HPC) 97 % of control | endpoint: mean survival time, dose: 400.0 mg/kg/injection, schedule: Q01DX009 (ip), vehicle: saline 100 % of control | [6] 92 % of control

O=P(O)(N(CCCl)CCCl)N1CCN(Cc2ccccc2)CC1
inactive: endpoint: mean survival time, dose: 10.0 mg/kg/injection, schedule: Q01DX Z (ip), vehicle: other 95 % of control | endpoint: mean survival time, dose: 30.0 mg/kg/injection, schedule: Q01DX Z (ip), vehicle: other 105 % of control | endpoint: mean survival time, dose: 100.0 mg/kg/injection, schedule: Q01DX Z (ip), vehicle: other 108 % of control

Cc1ccc(CNc2ccc(F)cc2)cc1
inactive: endpoint: mean survival time, dose: 100.0 mg/kg/injection, schedule: Q01DX009 (ip), vehicle: saline with Tween-80 94 % of control | [7] 92 % of control | endpoint: mean survival time, dose: 200.0 mg/kg/injection, schedule: Q01DX009 (ip), vehicle: saline with Tween-80 100 % of control | [8] 102 % of control | endpoint: mean survival time, dose: 400.0 mg/kg/injection, schedule: Q01DX009 (ip), vehicle: saline with Tween-80 97 % of control | [9] 113 % of control

O=C(CCCNC(=O)OCc1ccccc1)NCCCCCCCCCCNC(=O)CCCNC(=O)OCc1ccccc1
inactive: endpoint: mean survival time, dose: 10.0 mg/kg/injection, schedule: Q01DX012 (ip), vehicle: saline 102 % of control | endpoint: mean survival time, dose: 30.0 mg/kg/injection, schedule: Q01DX012 (ip), vehicle: saline 96 % of control | endpoint: mean survival time, dose: 100.0 mg/kg/injection, schedule: Q01DX012 (ip), vehicle: saline 90 % of control | endpoint: mean survival time, dose: 300.0 mg/kg/injection, schedule: Q01DX012 (ip), vehicle: saline 91 % of control

CC(C)(C)OC1C2C=CC1C=C2 (stereo unspecified)
inactive: endpoint: mean survival time, dose: 12.5 mg/kg/injection, schedule: Q04DX003 (ip), vehicle: Klucel (hydroxypropylcellulose) (HPC) 93 % of control | endpoint: mean survival time, dose: 25.0 mg/kg/injection, schedule: Q04DX003 (ip), vehicle: Klucel (hydroxypropylcellulose) (HPC) 91 % of control | endpoint: mean survival time, dose: 50.0 mg/kg/injection, schedule: Q04DX003 (ip), vehicle: Klucel (hydroxypropylcellulose) (HPC) 91 % of control | [4] 95 % of control

Cc1cc(C)c(C(=O)OC(c2ccccc2)C(c2ccccc2)N2CCOCC2)c(C)c1 (stereo unspecified)
inactive: endpoint: mean survival time, dose: 75.0 mg/kg/injection, schedule: Q01DX001 (ip), vehicle: saline 96 % of control | endpoint: mean survival time, dose: 150.0 mg/kg/injection, schedule: Q01DX001 (ip), vehicle: saline 97 % of control | endpoint: mean survival time, dose: 300.0 mg/kg/injection, schedule: Q01DX001 (ip), vehicle: saline 86 % of control

CCCCSc1ncc(C)c(N(C)C)n1
inactive: endpoint: mean survival time, dose: 25.0 mg/kg/injection, schedule: Q01DX Z (ip), vehicle: methylcellulose (MC) 92 % of control | endpoint: mean survival time, dose: 50.0 mg/kg/injection, schedule: Q01DX Z (ip), vehicle: methylcellulose (MC) 89 % of control

CC(C)=Cc1ccno1
inactive: [1] 100 % of control | [2] 100 % of control | [3] 100 % of control

O=NN(CCCl)C(=O)Nc1cccc(C(=O)O)c1
inactive: endpoint: mean survival time, dose: 0.62 mg/kg/injection, schedule: Q01DX001 (ip), vehicle: carboxymethylcellulose (CMC) 117 % of control | endpoint: mean survival time, dose: 5.0 mg/kg/injection, schedule: Q01DX001 (ip), vehicle: carboxymethylcellulose (CMC) 123 % of control | endpoint: mean survival time, dose: 12.0 mg/kg/injection, schedule: Q01DX001 (ip), vehicle: saline 121 % of control

COc1ccccc1N=Nc1c(O)n(-c2ccccc2)c(=S)n(-c2ccccc2)c1=O
inactive: endpoint: mean survival time, dose: 100.0 mg/kg/injection, schedule: Q01DX001 (ip), vehicle: saline with Tween-80 106 % of control | endpoint: mean survival time, dose: 200.0 mg/kg/injection, schedule: Q01DX001 (ip), vehicle: saline with Tween-80 95 % of control | endpoint: mean survival time, dose: 400.0 mg/kg/injection, schedule: Q01DX001 (ip), vehicle: saline with Tween-80 94 % of control

Cc1[nH]c(=S)[nH]c(=O)c1CCS
inactive: [1] 98 % of control | [2] 93 % of control | [3] 95 % of control

O=C(Nc1ccccc1C(F)(F)F)c1ccc(Cl)c(Cl)c1
inactive: endpoint: mean survival time, dose: 100.0 mg/kg/injection, schedule: Q01DX009 (ip), vehicle: Klucel (hydroxypropylcellulose) (HPC) 92 % of control | [4] 91 % of control | endpoint: mean survival time, dose: 200.0 mg/kg/injection, schedule: Q01DX009 (ip), vehicle: Klucel (hydroxypropylcellulose) (HPC) 89 % of control | [5] 90 % of control | [6] 88 % of control

c1ccc(CNCCNCCNCc2ccccc2)cc1
inactive: [7] 101 % of control | [8] 98 % of control | [9] 94 % of control

Clc1ccccc1C1Nc2ccccc2S1 (stereo unspecified)
inactive: [1] 109 % of control | [2] 104 % of control | [3] 99 % of control

Cc1c(NC(=O)Nc2cccc(Cl)c2)nc(Br)c2ccccc12
inactive: endpoint: mean survival time, dose: 100.0 mg/kg/injection, schedule: Q04DX002 (ip), vehicle: saline with Tween-80 101 % of control | endpoint: mean survival time, dose: 200.0 mg/kg/injection, schedule: Q04DX002 (ip), vehicle: saline with Tween-80 96 % of control

COC(=O)c1c2c(c3c(c1C(=O)OC)CCC3)CCC2
inactive: [1] 98 % of control | [2] 95 % of control | [3] 92 % of control

CCOc1cccc(Cc2c[nH]c(=O)n(C)c2=O)c1
inactive: [4] 93 % of control | [5] 97 % of control | [6] 98 % of control

O=C(COc1ccc(Cl)cc1Cl)Nc1cccc2c1C(=O)c1ccccc1C2=O
inactive: endpoint: mean survival time, dose: 100.0 mg/kg/injection, schedule: Q04DX002 (ip), vehicle: saline + alcohol 96 % of control | endpoint: mean survival time, dose: 200.0 mg/kg/injection, schedule: Q04DX002 (ip), vehicle: saline + alcohol 100 % of control | endpoint: mean survival time, dose: 400.0 mg/kg/injection, schedule: Q04DX002 (ip), vehicle: saline + alcohol 96 % of control
